# Results: patent US8623377B2, “Joint-homing peptides and uses thereof” (University of Maryland, Baltimore, priority 2011, dated 2014)
# Columns and labels:
# [1] = tested on: CD31-expressing endothelial cells from an arthritic rat joint; test: Binding of fluorescein-labeled peptide to CD31-expressing endothelial cells from arthritic rat joint; assay type: cell-based
# Protocol: FIG. 2A: Binding of specific phage encoding the peptide NQR or ADK to the vascular endothelium was visualized by immunohistochemical examination of the hind paw section of the rthritic rats using the anti-T7 phage antibody. The binding of phage was tested in the presence or absence of the corresponding synthetic peptide. BV, blood vessel, L, lumen. FIG. 2B: Arthritic rats were injected with specific phage (ADK phage, left; NQR phage, center; or RGD phage, right) in the presence or absence of the corresponding synthetic peptide, and the titer of the phage recovered from the synovial tissue was assessed. *P<0.01. FIG. 2C: CD31-expressing endothelial cells were isolated from arthritic rat joints (upper) or the liver (lower) and stained with DAPI (blue), FITC-labeled peptide NQR (green), or Alexa Fluor 594-labeled anti-rat CD31 antibody (red). Also shown is the staining overlay (merge) of green and red (yellow). The inset is an enlarged view of a single cell; original magnification, 20×. FIG. 2D: LPS-stimulated HUVECs were stained with DAPI and FITC-labeled peptide NQR and observed under a fluorescence microscope, original magnification, 100×. […]
# [2] = tested on: LPS-stimulated HUVECs; test: Internalization of FITC-labeled peptide in LPS-stimulated HUVECs; assay type: cell-based, human
# Protocol: FIG. 2A: Binding of specific phage encoding the peptide NQR or ADK to the vascular endothelium was visualized by immunohistochemical examination of the hind paw section of the rthritic rats using the anti-T7 phage antibody. The binding of phage was tested in the presence or absence of the corresponding synthetic peptide. BV, blood vessel, L, lumen. FIG. 2B: Arthritic rats were injected with specific phage (ADK phage, left; NQR phage, center; or RGD phage, right) in the presence or absence of the corresponding synthetic peptide, and the titer of the phage recovered from the synovial tissue was assessed. *P<0.01. FIG. 2C: CD31-expressing endothelial cells were isolated from arthritic rat joints (upper) or the liver (lower) and stained with DAPI (blue), FITC-labeled peptide NQR (green), or Alexa Fluor 594-labeled anti-rat CD31 antibody (red). Also shown is the staining overlay (merge) of green and red (yellow). The inset is an enlarged view of a single cell; original magnification, 20×. FIG. 2D: LPS-stimulated HUVECs were stained with DAPI and FITC-labeled peptide NQR and observed under a fluorescence microscope, original magnification, 100×.
sequence,measurement,setting,value
"CLDNQRPKC (Synthetic peptide homing to joint in an animal) [NQR peptide, joint-homing phage-derived synthetic peptide]",binding of fluorescein-labeled peptide to joint-derived endothelial cells,"[1]; CD31-expressing endothelial cells, arthritic rat joint",bound specifically to the joint-derived
same,colocalization of peptide with CD31,[1]; joint-derived endothelial cells,colocalized with CD31
same,cellular uptake of peptide,"[2]; FITC-labeled peptide, LPS-stimulated HUVECs",transported across the cell membrane into the cytoplasm and the nucleus
same,time by which most peptide accumulated in the perinuclear area,[2]; after addition to the cells,≤ 45 min
